Laboratory results taken from patent publication US12264156B2, “Compounds and pharmaceutical compositions thereof for the treatment of diseases” (GALAPAGOS NV, priority 2018, dated 2025).

How the values were obtained:
[1] = biological target: T1, SIK2 (Homo sapiens, UniProt Q9H0K1); experiment: ADP-Glo kinase assay, SIK2; assay type: biochemical; conditions: ADP-Glo SIK kinase assay
T1 construct: purchased ThermoFisher Scientific PV4792
How it was run: (§1)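 ADP-Glo, RT throughout. Enz/substrate + ATP, 120 min; ADP-Glo reagent 40 min (ATP depletion); detection reagent 30 min; luminescence read. Neg ctrl 1% DMSO, pos ctrl 10 μM staurosporine, final concs.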

[2] = biological target: T2, SIK3 (Homo sapiens, UniProt Q9Y2K2); experiment: ADP-Glo kinase assay, SIK3; assay type: biochemical; conditions: ADP-Glo SIK kinase assay
T2 construct: purchased SignalChem S12-11G-100
How it was run: as §1

[3] = biological target: T3, SIK1 (Homo sapiens, UniProt P57059); experiment: ADP-Glo kinase assay, SIK1; assay type: biochemical; conditions: ADP-Glo SIK kinase assay
T3 construct: purchased Carna Biosciences 02-131
How it was run: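 Wells with 1% DMSO or 10 μM staurosporine (final) define the control window. The kinase reaction with substrate and ATP runs 120 min at RT, followed by ADP-Glo detection: ATP depletion (40 min) and ADP-derived luminescence (30 min).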

[4] = test system: LPS triggered IL-10 secretion in monocytes; experiment: Monocytes assay: LPS-triggered IL-10 (ELISA); assay type: cell-based, human; conditions: LPS 200 ng/mL, supernatant after 4 h, maximal fold change vs LPS only
How it was run: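 Human CD14+ monocytes, magnetically isolated from buffy-coat PBMCs, were seeded at 100 000 cells/well and preincubated with compound for 1 h at 37° C (0.2% DMSO). LPS was then added at a final 200 ng/mL for 4 h. Supernatant IL-10 was quantified by chemiluminescent sandwich ELISA against a standard curve.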

[5] = test system: LPS-induced TNFα in monocytes; experiment: Monocytes assay: LPS-triggered TNFα (ELISA); assay type: cell-based, human; conditions: Homo sapiens, Monocyte, 4 h, LPS 200 ng/mL, supernatant after 4 h
How it was run: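 Human CD14+ monocytes from buffy-coat PBMCs (magnetic bead selection) were seeded at 100 000 cells/well and pretreated with compound for 1 h at 37° C (0.2% DMSO). They were then stimulated with 200 ng/mL LPS for 4 h, and supernatant TNFα was measured by chemiluminescent sandwich ELISA as percent inhibition.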

T3 sequence (P57059 whole entry): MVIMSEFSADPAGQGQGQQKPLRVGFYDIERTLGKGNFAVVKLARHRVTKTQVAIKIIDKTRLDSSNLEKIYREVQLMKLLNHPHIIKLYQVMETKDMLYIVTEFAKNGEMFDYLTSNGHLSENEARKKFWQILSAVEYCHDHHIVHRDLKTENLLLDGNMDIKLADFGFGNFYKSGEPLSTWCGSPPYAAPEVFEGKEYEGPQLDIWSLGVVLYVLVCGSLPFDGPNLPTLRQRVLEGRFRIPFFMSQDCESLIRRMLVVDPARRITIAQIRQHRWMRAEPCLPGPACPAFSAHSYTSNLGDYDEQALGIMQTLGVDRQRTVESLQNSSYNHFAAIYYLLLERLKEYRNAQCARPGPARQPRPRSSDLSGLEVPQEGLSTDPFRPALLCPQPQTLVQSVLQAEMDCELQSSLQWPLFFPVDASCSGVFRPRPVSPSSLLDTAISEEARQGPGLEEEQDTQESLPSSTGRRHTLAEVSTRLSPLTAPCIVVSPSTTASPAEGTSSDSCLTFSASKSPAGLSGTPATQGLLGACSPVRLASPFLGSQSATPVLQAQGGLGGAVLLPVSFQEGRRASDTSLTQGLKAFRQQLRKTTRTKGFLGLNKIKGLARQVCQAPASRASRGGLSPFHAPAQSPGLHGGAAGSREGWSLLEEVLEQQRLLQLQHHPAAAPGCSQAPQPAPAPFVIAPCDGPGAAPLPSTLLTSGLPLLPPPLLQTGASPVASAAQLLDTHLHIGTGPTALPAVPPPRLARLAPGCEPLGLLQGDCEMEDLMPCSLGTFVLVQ
T2 sequence (Q9Y2K2 whole entry): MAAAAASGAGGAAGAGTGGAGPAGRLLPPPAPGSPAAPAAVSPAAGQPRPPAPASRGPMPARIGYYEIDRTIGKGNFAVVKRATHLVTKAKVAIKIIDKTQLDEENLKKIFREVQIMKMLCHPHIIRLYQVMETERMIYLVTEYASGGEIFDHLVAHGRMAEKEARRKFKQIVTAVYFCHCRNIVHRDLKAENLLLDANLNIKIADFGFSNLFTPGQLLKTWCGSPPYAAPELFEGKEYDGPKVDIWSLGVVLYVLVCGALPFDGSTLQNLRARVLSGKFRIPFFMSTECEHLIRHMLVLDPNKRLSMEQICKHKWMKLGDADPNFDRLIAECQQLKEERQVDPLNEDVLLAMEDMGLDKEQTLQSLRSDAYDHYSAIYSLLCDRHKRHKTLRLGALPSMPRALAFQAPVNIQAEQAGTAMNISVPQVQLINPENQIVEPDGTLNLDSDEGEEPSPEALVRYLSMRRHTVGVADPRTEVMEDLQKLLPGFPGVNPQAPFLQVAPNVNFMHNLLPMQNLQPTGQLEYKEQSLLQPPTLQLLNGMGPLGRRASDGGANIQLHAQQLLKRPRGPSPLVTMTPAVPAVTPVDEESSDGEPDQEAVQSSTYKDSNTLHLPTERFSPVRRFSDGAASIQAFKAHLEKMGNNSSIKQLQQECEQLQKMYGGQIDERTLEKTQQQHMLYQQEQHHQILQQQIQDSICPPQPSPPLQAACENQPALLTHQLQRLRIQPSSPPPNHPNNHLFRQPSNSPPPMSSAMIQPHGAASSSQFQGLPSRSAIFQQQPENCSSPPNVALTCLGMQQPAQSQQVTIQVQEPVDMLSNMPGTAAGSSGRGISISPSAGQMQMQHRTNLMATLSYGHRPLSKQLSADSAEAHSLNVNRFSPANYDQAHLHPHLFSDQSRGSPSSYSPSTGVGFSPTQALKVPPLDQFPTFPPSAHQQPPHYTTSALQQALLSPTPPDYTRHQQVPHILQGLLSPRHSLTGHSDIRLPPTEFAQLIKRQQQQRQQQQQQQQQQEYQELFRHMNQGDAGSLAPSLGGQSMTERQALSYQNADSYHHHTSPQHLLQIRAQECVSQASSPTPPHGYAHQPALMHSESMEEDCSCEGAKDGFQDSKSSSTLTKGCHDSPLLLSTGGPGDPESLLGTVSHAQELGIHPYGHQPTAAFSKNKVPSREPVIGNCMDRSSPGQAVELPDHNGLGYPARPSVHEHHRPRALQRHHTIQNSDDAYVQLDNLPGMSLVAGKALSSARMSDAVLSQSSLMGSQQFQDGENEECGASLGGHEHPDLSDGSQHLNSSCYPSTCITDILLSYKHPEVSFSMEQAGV
T1 sequence (Q9H0K1 whole entry): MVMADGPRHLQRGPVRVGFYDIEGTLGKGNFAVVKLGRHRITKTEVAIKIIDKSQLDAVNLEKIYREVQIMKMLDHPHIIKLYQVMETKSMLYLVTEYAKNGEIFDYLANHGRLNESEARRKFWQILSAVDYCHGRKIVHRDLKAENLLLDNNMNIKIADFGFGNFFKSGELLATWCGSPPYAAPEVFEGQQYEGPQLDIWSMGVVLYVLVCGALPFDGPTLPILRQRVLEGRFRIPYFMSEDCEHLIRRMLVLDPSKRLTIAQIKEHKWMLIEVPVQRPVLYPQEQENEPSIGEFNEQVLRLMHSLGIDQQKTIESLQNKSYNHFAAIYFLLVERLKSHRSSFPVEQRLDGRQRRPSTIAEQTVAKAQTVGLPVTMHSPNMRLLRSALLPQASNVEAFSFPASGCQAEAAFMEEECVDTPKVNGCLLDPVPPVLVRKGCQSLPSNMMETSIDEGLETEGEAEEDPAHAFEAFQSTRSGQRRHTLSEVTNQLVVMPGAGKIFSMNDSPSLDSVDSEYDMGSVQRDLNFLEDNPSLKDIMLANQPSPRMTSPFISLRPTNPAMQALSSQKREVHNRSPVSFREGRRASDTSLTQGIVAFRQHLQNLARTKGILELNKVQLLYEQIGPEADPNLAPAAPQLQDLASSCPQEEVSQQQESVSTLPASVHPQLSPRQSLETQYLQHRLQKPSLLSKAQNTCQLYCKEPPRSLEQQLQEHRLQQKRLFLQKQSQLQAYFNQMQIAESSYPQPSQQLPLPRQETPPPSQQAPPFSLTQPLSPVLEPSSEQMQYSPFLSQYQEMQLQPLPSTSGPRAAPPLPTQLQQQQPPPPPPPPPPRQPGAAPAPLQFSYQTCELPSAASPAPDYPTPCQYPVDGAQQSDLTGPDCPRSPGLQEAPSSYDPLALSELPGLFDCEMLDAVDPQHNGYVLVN

| Structure (SMILES) | IC50 [1] [nM] | IC50 [2] [nM] | IC50 [3] [nM] | EC50 [5] [nM] | IL-10 FCmax median [4] |
| --- | --- | --- | --- | --- | --- |
| COc1cc(-c2cnc3cc(OCCCN4CCC45CCC5)ccn23)cc(OC(F)F)c1C(=O)NC1CC1 [compound 302, 4-[7-[3-(1-azaspiro[3.3]heptan-1-yl)propoxy]imidazo[1,2-a]pyridin-3-yl]-N-cyclopropyl-2-(difluoromethoxy)-6-methoxy-benzamide] | 0.01 to 10 | 0.01 to 10 | 10 to 100 | 0.1 to 100 | +++ (>4.5) |
| COc1cc(-c2cnc3cc(OCCCN4CCCC5(COC5)C4)ccn23)cc(OC(F)F)c1C(=O)NC1CC1 [compound 303, N-cyclopropyl-2-(difluoromethoxy)-6-methoxy-4-[7-[3-(2-oxa-8-azaspiro[3.5]nonan-8-yl)propoxy]imidazo[1,2-a]pyridin-3-yl]benzamide] | 0.01 to 10 | 0.01 to 10 | 10 to 100 | 0.1 to 100 | +++ (>4.5) |
| COc1cc(-c2cnc3cc(OC[C@H]4CCN(C(C)C)C4)ccn23)cc(OC(F)F)c1C(=O)NC1CC1 [compound 316, N-cyclopropyl-2-(difluoromethoxy)-4-[7-[[(3S)-1-isopropylpyrrolidin-3-yl]methoxy]imidazo[1,2-a]pyridin-3-yl]-6-methoxy-benzamide] | 0.01 to 10 | 0.01 to 10 | 10 to 100 | 0.1 to 100 | +++ (>4.5) |
| COc1cc(-c2cnc3cc(OCCCN4CCC(O)C4)ccn23)cc(OC(F)F)c1C(=O)NC1CC1 (centres unmarked) [compound 319, N-cyclopropyl-2-(difluoromethoxy)-4-[7-[3-(3-hydroxypyrrolidin-1-yl)propoxy]imidazo[1,2-a]pyridin-3-yl]-6-methoxy-benzamide] | 0.01 to 10 | 0.01 to 10 | 10 to 100 | 100 to 1000 | ++ (>1.5-4.5) |
| COc1cc(-c2cnc3cc(OCCCN4CCS(=N)(=O)CC4)ccn23)cc(OC(F)F)c1C(=O)NC1CC1 [compound 327, N-cyclopropyl-2-(difluoromethoxy)-4-[7-[3-(1-imino-1-oxo-1,4-thiazinan-4-yl)propoxy]imidazo[1,2-a]pyridin-3-yl]-6-methoxy-benzamide] | 0.01 to 10 | 0.01 to 10 | 10 to 100 | 100 to 1000 | +++ (>4.5) |
| COc1cc(-c2cnc3cc(OC[C@H]4CCCN(C(C)C)C4)ccn23)cc(OC(F)F)c1C(=O)NC1CC1 [compound 329, N-cyclopropyl-2-(difluoromethoxy)-4-[7-[[(3S)-1-isopropyl-3-piperidyl]methoxy]imidazo [1,2-a]pyridin-3-yl]-6-methoxy-benzamide] | 0.01 to 10 | 0.01 to 10 | 10 to 100 | 0.1 to 100 | +++ (>4.5) |
| COc1cc(-c2cnc3cc(OC[C@@H]4CCN(C(C)C)C4)ccn23)cc(OC(F)F)c1C(=O)NC1CC1 [compound 337, N-cyclopropyl-2-(difluoromethoxy)-4-[7-[[(3R)-1-isopropylpyrrolidin-3-yl]methoxy]imidazo[1,2-a]pyridin-3-yl]-6-methoxy-benzamide] | 0.01 to 10 | 0.01 to 10 | 10 to 100 | 0.1 to 100 | +++ (>4.5) |
| COc1cc(-c2cnc3cc(OC[C@@H]4CCCN(C(C)C)C4)ccn23)cc(OC(F)F)c1C(=O)NC1CC1 [compound 338, N-cyclopropyl-2-(difluoromethoxy)-4-[7-[[(3R)-1-isopropyl-3-piperidyl]methoxy]imidazo [1,2-a]pyridin-3-yl]-6-methoxy-benzamide] | 0.01 to 10 | 0.01 to 10 | 10 to 100 | 0.1 to 100 | ++ (>1.5-4.5) |
| COc1cc(-c2cnc3cc(OCCCN4CCC(F)(F)C(O)C4)ccn23)cc(OC(F)F)c1C(=O)NC1CC1 (centres unmarked) [compound 344, N-cyclopropyl-4-[7-[3-(4,4-difluoro-3-hydroxy-1-piperidyl)propoxy]imidazo [1,2-a]pyridin-3-yl]-2-(difluoromethoxy)-6-methoxy-benzamide] | 0.01 to 10 | 0.01 to 10 | 10 to 100 | 0.1 to 100 | ++ (>1.5-4.5) |
| COc1cc(-c2cnc3cc(OCCCN4CC(O)C(F)(F)C4)ccn23)cc(OC(F)F)c1C(=O)NC1CC1 (centres unmarked) [compound 345, N-cyclopropyl-4-[7-[3-(3,3-difluoro-4-hydroxy-pyrrolidin-1-yl)propoxy]imidazo[1,2-a]pyridin-3-yl]-2-(difluoromethoxy)-6-methoxy-benzamide] | 0.01 to 10 | 0.01 to 10 | 10 to 100 | 0.1 to 100 | +++ (>4.5) |
| COc1cc(-c2cnc3cc(OCCCN4CC(O)(C(F)(F)F)C4)ccn23)cc(OC(F)F)c1C(=O)NC1CC1 [compound 348, N-cyclopropyl-2-(difluoromethoxy)-4-[7-[3-[3-hydroxy-3-(trifluoromethyl)azetidin-1-yl]propoxy]imidazo[1,2-a]pyridin-3-yl]-6-methoxy-benzamide] | 0.01 to 10 | 0.01 to 10 | 10 to 100 | 0.1 to 100 | ++ (>1.5-4.5) |

Second part, led by results:

| IC50 [1] [nM] | IC50 [2] [nM] | IC50 [3] [nM] | EC50 [5] [nM] | Structure (SMILES) | IL-10 FCmax median [4] |
| --- | --- | --- | --- | --- | --- |
| 0.01 to 10 | 0.01 to 10 | 10 to 100 | 100 to 1000 | COc1cc(-c2cnc3cc(OCCCN4CCCCC4)ccn23)cc(OC(F)F)c1C(=O)N1CC(O)(C(F)(F)F)C1 [compound 354, [2-(difluoromethoxy)-6-methoxy-4-[7-[3-(1-piperidyl)propoxy]imidazo[1,2-a]pyridin-3-yl]phenyl]-[3-hydroxy-3-(trifluoromethyl)azetidin-1-yl]methanone] | +++ (>4.5) |
| 0.01 to 10 | 0.01 to 10 | 10 to 100 | 100 to 1000 | COc1cc(-c2cnc3cc(OCCCN4CCCCC4)ccn23)cc(OC(F)F)c1C(=O)NCC#N [compound 356, N-(cyanomethyl)-2-(difluoromethoxy)-6-methoxy-4-[7-[3-(1-piperidyl)propoxy]imidazo[1,2-a]pyridin-3-yl]benzamide] | +++ (>4.5) |
| 0.01 to 10 | 0.01 to 10 | 10 to 100 | 100 to 1000 | COc1cc(-c2cnc3cc(OCCCN4CCCCC4)ccn23)cc(OC(F)F)c1C(=O)N1CC(O)(C(F)F)C1 [compound 358, [2-(difluoromethoxy)-6-methoxy-4-[7-[3-(1-piperidyl)propoxy]imidazo[1,2-a]pyridin-3-yl]phenyl]-[3-(difluoromethyl)-3-hydroxy-azetidin-1-yl]methanone] | +++ (>4.5) |
| 0.01 to 10 | 0.01 to 10 | 10 to 100 | 0.1 to 100 | COc1cc(-c2cnc3cc(OCCCN4CCC(F)(CO)CC4)ccn23)cc(OC(F)F)c1C(=O)NC1CC1 [compound 360, N-cyclopropyl-2-(difluoromethoxy)-4-[7-[3-[4-fluoro-4-(hydroxymethyl)-1-piperidyl]propoxy]imidazo [1,2-a]pyridin-3-yl]-6-methoxy-benzamide] | ++ (>1.5-4.5) |
| 0.01 to 10 | 0.01 to 10 | 10 to 100 | 100 to 1000 | COc1cc(-c2cnc3cc(OCCCN4CC(C)(O)C4)ccn23)cc(OC(F)F)c1C(=O)NC1CC1 [compound 362, N-cyclopropyl-2-(difluoromethoxy)-4-[7-[3-(3-hydroxy-3-methyl-azetidin-1-yl)propoxy]imidazo[1,2-a]pyridin-3-yl]-6-methoxy-benzamide] | ++ (>1.5-4.5) |
| 0.01 to 10 | 0.01 to 10 | 10 to 100 | 100 to 1000 | COc1cc(-c2cnc3cc(OCC(O)CN4CCS(=O)(=O)CC4)ccn23)cc(OC(F)F)c1C(=O)NC1CC1 (centres unmarked) [compound 374, N-cyclopropyl-2-(difluoromethoxy)-4-[7-[3-(1,1-dioxo-1,4-thiazinan-4-yl)-2-hydroxy-propoxy]imidazo[1,2-a]pyridin-3-yl]-6-methoxy-benzamide] | +++ (>4.5) |
| 0.01 to 10 | 0.01 to 10 | 10 to 100 | 100 to 1000 | COc1cc(-c2cnc3cc(OCC(O)CN4CC(O)(C(F)(F)F)C4)ccn23)cc(OC(F)F)c1C(=O)NC1CC1 (centres unmarked) [compound 375, N-cyclopropyl-2-(difluoromethoxy)-4-[7-[2-hydroxy-3-[3-hydroxy-3-(trifluoromethyl)azetidin-1-yl]propoxy]imidazo[1,2-a]pyridin-3-yl]-6-methoxy-benzamide] | +++ (>4.5) |
| 0.01 to 10 | 0.01 to 10 | 10 to 100 | 0.1 to 100 | CCOC(=O)C1CCN(CCCOc2ccn3c(-c4cc(OC)c(C(=O)NC5CC5)c(OC(F)F)c4)cnc3c2)CC1 [compound 377, ethyl 1-[3-[3-[4-(cyclopropylcarbamoyl)-3-(difluoromethoxy)-5-methoxy-phenyl]imidazo[1,2-a]pyridin-7-yl]oxypropyl]piperidine-4-carboxylate] | ++ (>1.5-4.5) |
